pIC50: −log10 of the molar value.
Experiments:
[1] = target: Serine/threonine-protein kinase pim-1 (Homo sapiens, UniProt P11309); assay: Inhibition of Pim-1 (unknown origin) measured by ADP-Glo kinase assay
MDA-MB-231 = assay: Antiproliferative activity against human […] cells measured by cell viability assay; format: functional, cell-based

Sequence of Serine/threonine-protein kinase pim-1 (P11309 whole entry): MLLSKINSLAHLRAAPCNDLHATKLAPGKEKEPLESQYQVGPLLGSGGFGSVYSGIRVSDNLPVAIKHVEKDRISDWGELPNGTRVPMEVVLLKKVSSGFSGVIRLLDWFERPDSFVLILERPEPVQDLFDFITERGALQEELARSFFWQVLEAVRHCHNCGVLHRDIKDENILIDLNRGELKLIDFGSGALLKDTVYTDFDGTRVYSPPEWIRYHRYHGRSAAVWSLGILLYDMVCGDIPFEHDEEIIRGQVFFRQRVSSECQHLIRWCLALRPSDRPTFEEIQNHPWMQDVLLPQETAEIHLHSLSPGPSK

Compound | pIC50 [1] | pIC50 (MDA-MB-231)
c1cc2c(cn1)Oc1ccc3cc1N2CCCCCNCCOCCO3 | 6.86 | 4.59
c1cc2c(cn1)Oc1ccc3cc1N2CCOCCNCCCO3 | 6.06 | 4.52
c1cc2c(cn1)Oc1ccc3cc1N2CCOCCNCCCCO3 | 6.33 | 4.36
c1cc2c(cn1)Oc1ccc3cc1N2CCCCNCCCCO3 | 6.36 | 4.72
c1cc2c(cn1)Oc1ccc3cc1N2CCCCCNCCCCO3 | 7.45 | 5.09
c1cc2c(cn1)Oc1ccc3cc1N2CCCCNCCCCCO3 | 6.57 | 4.79
c1cc2c(cn1)Oc1ccc3cc1N2CCOCCNCCCCCO3 | 5.66 | 4.45
c1cc2c(cn1)Oc1ccc3cc1N2CCCCNCCOCCO3 | 6.75 | 4.91
c1cc2c(cn1)Oc1ccc3cc1N2CCCNCCOCCO3 | 7.24 | 4.71
